From ChEMBL document CHEMBL3046960, “Are traditional neem extract preparations as efficient as a commercial formulation of azadirachtin A?” (2011)

Key:
Format in all cases: functional
Spodoptera littoralis = test: Insecticidal activity against third to fourth instar larvae Spodoptera littoralis in broad bean plant assessed as mortality rate at 25 mg/L (reference value: 33.3%)
[1] = system: Macrosteles quadripunctulatus; test: Insecticidal activity against third to fourth-instar nymphs stage Macrosteles quadripunctulatus assessed as mortality rate at 25 mg/L (reference value: 11.4%)
Bemisia tabaci = test: Insecticidal activity against Bemisia tabaci (sweet potato whitefly) in cucumber plant assessed as mortality rate at 25 mg/L relative to control

| SMILES | mortality at 25 µg/mL (Spodoptera littoralis) | mortality at 25 µg/mL [1] | mortality at 25 µg/mL (Bemisia tabaci) |
| --- | --- | --- | --- |
| C/C=C(\C)C(=O)O[C@H]1C[C@@H](OC(C)=O)[C@@]2(C(=O)OC)CO[C@H]3[C@@H](O)[C@@](C)([C@]45O[C@@]4(C)[C@@H]4C[C@H]5O[C@@H]5OC=C[C@@]54O)[C@H]4[C@]1(CO[C@]4(O)C(=O)OC)[C@@H]32 [AZADIRACHTIN A] | 83.5% | 30% | 82.8% |
| C/C=C(\C)C(=O)O[C@H]1C[C@@H](OC(C)=O)[C@@]2(C(=O)OC)CO[C@H]3[C@@H](O)[C@@](C)([C@]45O[C@@]4(C)[C@H]4C[C@@H]5O[C@@H]5OC=C[C@@]54O)[C@H]4[C@]1(CO[C@]4(O)C(=O)OC)[C@@H]32 [AZADIRACTIN] | 100% | 85.7% | 94.1% |
